# Molecular target: T1, human bradykinin 1 receptor (B1R) (Homo sapiens, UniProt P46663)
# T1 construct: expressed in transfected cells; host or cells: CHO K1 cells
# T1 sequence (P46663 1-353): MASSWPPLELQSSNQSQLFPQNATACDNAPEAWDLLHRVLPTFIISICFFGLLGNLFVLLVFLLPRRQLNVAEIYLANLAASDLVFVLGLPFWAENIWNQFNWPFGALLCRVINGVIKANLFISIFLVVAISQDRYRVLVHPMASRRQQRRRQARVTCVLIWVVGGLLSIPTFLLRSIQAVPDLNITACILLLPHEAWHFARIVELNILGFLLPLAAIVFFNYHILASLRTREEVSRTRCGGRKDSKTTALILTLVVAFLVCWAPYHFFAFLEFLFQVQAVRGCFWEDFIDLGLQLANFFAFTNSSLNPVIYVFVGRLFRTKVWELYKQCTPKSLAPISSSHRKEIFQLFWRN
# Assay: Functional investigation on the human bradykinin 1 receptor (B1R), Ca2+ FLIPR assay in CHO K1 hB1R cells
# Format: cell-based
# Settings: B1R antagonism human; test substance 10 μM; Ca2+ FLIPR, CHO K1 hB1R cells
# Method in brief: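 Fluo-4 Ca2+ readout, peak fluorescence. Stable CHO K1 transfectants; compound pre-incubated 10-20 min, then EC80 agonist—Lys-Des-Arg9-BK for hB1R, Des-Arg9-BK for rB1R. % inhibition vs maximal inhibition; IC50 from multiple concentrations, duplicate/triplicate, ≥2 independent runs.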
row,Compound,B1R Ant. h [10 μM] % Inhibition
1,"CN(C)C(c1ccccc1)C1CCC(CNC(=O)COCC2CCCN(S(=O)(=O)c3ccccc3)C2)CC1 (stereo not shown) [Example 129, N((4((dimethylamino)(phenyl)methyl)cyclohexyl)methyl)-2-((1-(phenylsulfonyl)piperidin-3-yl)methoxy)acetamide]",−5%
2,"Cc1ccc(S(=O)(=O)N(C)CCOCC(=O)NC2CCC(C(c3cccs3)N(C)C)CC2)cc1 (stereo not shown) [Example 168, N-(4-((dimethylamino) (thiophen-2-yl)methyl)cyclohexyl)-2-(2-(N,4-dimethylphenylsulfamido)ethoxy)acetamide]",−5%
3,COc1cc(C)c(S(=O)(=O)N(CCOCC(=O)NCC2CCC(C(c3ccccc3)N(C)C)CC2)Cc2ccccc2)c(C)c1C (stereo not shown) [Example 201],76%
4,CN(C)C(c1cccc(F)c1)C1CCC(CCNC(=O)COCC2CCCN2S(=O)(=O)c2ccc(Cl)c(Cl)c2)CC1 (stereo not shown) [Example 202],48%
5,COc1ccc(S(=O)(=O)N2CCCCC2CCOCC(=O)NCC2CCC(C(c3cccc(F)c3)N(C)C)CC2)cc1 (stereo not shown) [Example 203],42%
6,CN(C)C(c1cccc(F)c1)C1CCC(NC(=O)COC2CCN(S(=O)(=O)c3ccc(Cl)cc3)C2)CC1 (stereo not shown) [Example 204],2%
7,CN(C)C(c1cccc(F)c1)C1CCC(NC(=O)COCCN(C)S(=O)(=O)c2ccc(F)cc2)CC1 (stereo not shown) [Example 205],−11%
8,COc1ccc(S(=O)(=O)N(C)CCOCC(=O)NC2CCC(C(c3cccs3)N(C)C)CC2)cc1OC (stereo not shown) [Example 206],−5%
9,CN(C)C(c1ccc(Cl)cc1)C1CCC(CNC(=O)COCCN(C)S(=O)(=O)c2c(Cl)cccc2Cl)CC1 (stereo not shown) [Example 207],104%
10,CN(C)C(c1cccc(F)c1)C1CCC(NC(=O)COCCN(C)S(=O)(=O)c2c(Cl)cc(Cl)cc2Cl)CC1 (stereo not shown) [Example 208],89%
11,CCN(CCOCC(=O)NCCC1CCC(C(c2cccc(F)c2)N(C)C)CC1)S(=O)(=O)c1c(C)cc(OC)c(C)c1C (stereo not shown) [Example 209],64%
12,CN(C)C(c1cccc(F)c1)C1CCC(NC(=O)COCC2CCCN2S(=O)(=O)c2ccc(Cl)c(Cl)c2)CC1 (stereo not shown) [Example 211],33%
13,COc1ccc(S(=O)(=O)N2CCCCC2CCOCC(=O)NC2CCC(C(c3ccc(F)cc3)N(C)C)CC2)cc1 (stereo not shown) [Example 212],49%
14,COc1ccc(S(=O)(=O)N2CCCCC2CCOCC(=O)NCCC2CCC(C(c3cccc(F)c3)N(C)C)CC2)cc1 (stereo not shown) [Example 213],78%
15,CN(C)C(c1cccs1)C1CCC(CCNC(=O)COC2CCCCC2N(C)S(=O)(=O)c2ccc(Cl)c(Cl)c2)CC1 (stereo not shown) [Example 214],−2%
16,CN(C)C(c1cccc(F)c1)C1CCC(CCNC(=O)COCCN(C)S(=O)(=O)c2ccc(OC(F)(F)F)cc2)CC1 (stereo not shown) [Example 215],1%
17,Cc1ccc(S(=O)(=O)N2CCC(OCC(=O)NCCC3CCC(C(c4cccc(F)c4)N(C)C)CC3)C2)cc1 (stereo not shown) [Example 216],20%
18,CN(C)C(c1cccc(F)c1)C1CCC(NC(=O)COCCN(C)S(=O)(=O)c2ccc(Cl)cc2Cl)CC1 (stereo not shown) [Example 217],85%
19,CN(C)C(c1cccc(F)c1)C1CCC(CCNC(=O)COCCN(C)S(=O)(=O)c2ccc(F)cc2)CC1 (stereo not shown) [Example 218],7%
20,CN(C)C(c1ccccc1)C1CCC(CNC(=O)COC2CCN(S(=O)(=O)c3ccc(F)cc3)C2)CC1 (stereo not shown) [Example 219],−1%
21,CN(C)C(c1cccc(F)c1)C1CCC(CNC(=O)COCC2CCCN(S(=O)(=O)c3ccccc3)C2)CC1 (stereo not shown) [Example 220],6%
22,COc1cc(C)c(S(=O)(=O)N2CCCC(OCC(=O)NCCC3CCC(C(c4cccc(F)c4)N(C)C)CC3)C2)c(C)c1C (stereo not shown) [Example 221],21%
23,COc1cc(C)c(S(=O)(=O)N2CCN(CCOCC(=O)NC3CCC(C(c4ccc(F)cc4)N(C)C)CC3)CC2)c(C)c1C (stereo not shown) [Example 222],54%
24,COc1cc(C)c(S(=O)(=O)N2CCN(CCOCC(=O)NCC3CCC(C(c4cccc(F)c4)N(C)C)CC3)CC2)c(C)c1C (stereo not shown) [Example 223],52%
25,COc1ccc(S(=O)(=O)N2CCCC2COCC(=O)NCCC2CCC(C(c3cccc(F)c3)N(C)C)CC2)cc1 (stereo not shown) [Example 224],34%
26,CN(C)C(c1cccc(F)c1)C1CCC(CNC(=O)COC2CCN(S(=O)(=O)c3ccc(Cl)cc3Cl)C2)CC1 (stereo not shown) [Example 225],51%
27,Cc1ccc(S(=O)(=O)N(C)CCOCC(=O)NC2CCC(C(c3cccc(F)c3)N(C)C)CC2)cc1 (stereo not shown) [Example 226],−4%
28,Cc1ccc(S(=O)(=O)N(C)CCOCC(=O)NCC2CCC(C(c3cccc(F)c3)N(C)C)CC2)cc1 (stereo not shown) [Example 227],6%

row,Compound,B1R Ant. h [10 μM] % Inhibition
1,COc1cc(C)c(S(=O)(=O)N(C)CCOCC(=O)NC2CCC(C(c3cccc(F)c3)N(C)C)CC2)c(C)c1 (stereo not shown) [Example 228],104%
2,CN(C)C(c1cccc(F)c1)C1CCC(CNC(=O)COCCN(C)S(=O)(=O)c2ccc(F)cc2)CC1 (stereo not shown) [Example 229],7%
3,CN(C)C(c1cccs1)C1CCC(CCNC(=O)COC2CCN(S(=O)(=O)c3ccccc3)CC2)CC1 (stereo not shown) [Example 230],−16%
4,CCN(CCOCC(=O)NCC1CCC(C(c2ccccc2)N(C)C)CC1)S(=O)(=O)c1c(C)cc(OC)c(C)c1C (stereo not shown) [Example 231],9%
5,COc1cc(C)c(S(=O)(=O)N2CCC(OCC(=O)NCCC3CCC(C(c4cccc(F)c4)N(C)C)CC3)CC2)c(C)c1C (stereo not shown) [Example 232],17%
6,COc1ccc(S(=O)(=O)N2Cc3ccccc3CC2COCC(=O)NC2CCC(C(c3ccc(F)cc3)N(C)C)CC2)cc1 (stereo not shown) [Example 234],50%
7,Cc1cc(C)c(S(=O)(=O)N(C)CCOCC(=O)NC2CCC(C(c3cccs3)N(C)C)CC2)c(C)c1 (stereo not shown) [Example 235],31%
8,COc1cc(C)c(S(=O)(=O)N(C)CCOCC(=O)NC2CCC(C(c3ccccc3)N(C)C)CC2)c(C)c1 (stereo not shown) [Example 239],104%
9,Cc1ccc(S(=O)(=O)N(C)CCOCC(=O)NCCC2CCC(C(c3cccc(F)c3)N(C)C)CC2)cc1 (stereo not shown) [Example 240],2%
10,CN(C)C(c1ccc(Cl)cc1)C1CCC(CCNC(=O)COCCN(C)S(=O)(=O)c2ccc(F)cc2)CC1 (stereo not shown) [Example 241],29%
11,COc1ccc(S(=O)(=O)N(C)CCOCC(=O)NCC2CCC(C(c3ccccc3)N(C)C)CC2)cc1 (stereo not shown) [Example 242],39%
12,COc1ccc(S(=O)(=O)N2CCCCC2COCC(=O)NC2CCC(C(c3cccs3)N(C)C)CC2)cc1 (stereo not shown) [Example 243],16%
13,CN(C)C(c1ccc(F)cc1)C1CCC(CCNC(=O)COC2CCCCC2N(C)S(=O)(=O)c2ccc(Cl)c(Cl)c2)CC1 (stereo not shown) [Example 244],21%
14,CN(C)C(c1cccc(F)c1)C1CCC(NC(=O)COCCN(C)S(=O)(=O)c2ccc(OC(F)(F)F)cc2)CC1 (stereo not shown) [Example 246],10%
15,CN(C)C(c1cccc(F)c1)C1CCC(CCNC(=O)COC2CCN(S(=O)(=O)c3ccc(Cl)cc3)C2)CC1 (stereo not shown) [Example 247],4%
16,COc1cc(C)c(S(=O)(=O)N(C)CCOCC(=O)NCC2CCC(C(c3cccc(F)c3)N(C)C)CC2)c(C)c1 (stereo not shown) [Example 248],104%
17,CN(C)C(c1ccc(F)cc1)C1CCC(CNC(=O)COCCN(C)S(=O)(=O)c2ccc(Cl)cc2Cl)CC1 (stereo not shown) [Example 249],104%
18,COc1ccc(S(=O)(=O)N(C)CCOCC(=O)NC2CCC(C(c3cccc(F)c3)N(C)C)CC2)cc1 (stereo not shown) [Example 250],12%
19,COc1cc(C)c(S(=O)(=O)N2CCC(OCC(=O)NC3CCC(C(c4cccc(F)c4)N(C)C)CC3)C2)c(C)c1 (stereo not shown) [Example 251],81%
20,COc1cc(C)c(S(=O)(=O)N2CCC(OCC(=O)NCC3CCC(C(c4cccc(F)c4)N(C)C)CC3)C2)c(C)c1C (stereo not shown) [Example 252],59%
21,COc1cc(C)c(S(=O)(=O)N2CCC(OCC(=O)NCCC3CCC(C(c4cccc(F)c4)N(C)C)CC3)C2)c(C)c1C (stereo not shown) [Example 253],47%
22,COc1cc(C)c(S(=O)(=O)N(CCOCC(=O)NCCC2CCC(C(c3cccs3)N(C)C)CC2)Cc2ccccc2)c(C)c1C (stereo not shown) [Example 254],27%
23,COc1ccc(S(=O)(=O)N2CCCCC2COCC(=O)NC2CCC(C(c3cccc(F)c3)N(C)C)CC2)cc1 (stereo not shown) [Example 255],37%
24,CN(C)C(c1ccc(F)cc1)C1CCC(NC(=O)COC2CCCCC2N(C)S(=O)(=O)c2ccc(Cl)c(Cl)c2)CC1 (stereo not shown) [Example 256],52%
25,CN(C)C(c1cccc(F)c1)C1CCC(CNC(=O)COC2CCN(S(=O)(=O)c3ccc(Cl)cc3)C2)CC1 (stereo not shown) [Example 258],−12%
26,CN(C)C(c1cccc(F)c1)C1CCC(CCNC(=O)COC2CCN(S(=O)(=O)c3ccc(Cl)cc3Cl)C2)CC1 (stereo not shown) [Example 259],72%
27,COc1ccc(S(=O)(=O)N2CCC(OCC(=O)NCC3CCC(C(c4ccc(Cl)cc4)N(C)C)CC3)C2)cc1OC (stereo not shown) [Example 260],−7%

# From US8106055B2, “Substituted amide compounds” (Gruenenthal GmbH, priority 2007, dated 2012)
